# Experimental data from ChEMBL document CHEMBL2331237, “Amides of 4-hydroxy-8-methanesulfonylamino-quinoline-2-carboxylic acid as zinc-dependent inhibitors of Lp-PLA₂” (Bioorg Med Chem Lett, 2013).
# Molecular target: T1, Platelet-activating factor acetylhydrolase (Homo sapiens, UniProt Q13093)
# T1 sequence (Q13093 whole entry): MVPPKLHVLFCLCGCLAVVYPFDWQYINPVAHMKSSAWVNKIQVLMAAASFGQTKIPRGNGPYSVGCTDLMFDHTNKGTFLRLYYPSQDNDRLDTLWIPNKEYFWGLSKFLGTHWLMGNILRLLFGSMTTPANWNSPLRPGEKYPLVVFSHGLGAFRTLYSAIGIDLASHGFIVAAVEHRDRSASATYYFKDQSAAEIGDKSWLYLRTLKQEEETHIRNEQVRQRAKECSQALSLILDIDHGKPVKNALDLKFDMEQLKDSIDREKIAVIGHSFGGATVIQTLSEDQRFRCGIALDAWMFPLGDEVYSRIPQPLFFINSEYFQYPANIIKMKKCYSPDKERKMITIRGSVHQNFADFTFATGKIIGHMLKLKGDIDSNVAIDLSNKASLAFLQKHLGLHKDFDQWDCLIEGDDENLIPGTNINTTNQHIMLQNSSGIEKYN
# Test: Inhibition of human plasma Lp-PLA2 using 2- thio-PAF as substrate incubated for 20 mins prior to substrate addition measured after 1 hr
row,Structure (SMILES),IC50
1,COc1cc(NS(=O)(=O)c2ccc(C)cc2)c2ncccc2c1,> 100 µM
2,CCOC(=O)COc1cc(NS(=O)(=O)c2ccc(C)cc2)c2nc(C)ccc2c1,> 100 µM
3,CS(=O)(=O)Nc1cccc2c(O)cc(C(=O)NC3CCCCCCCCCCCCC3)nc12,> 100 µM
